Results published in the NIST ThermoML archive (doi:10.1016/j.jct.2011.06.019).

Legend:
[1] = molar heat capacity at constant pressure; conditions: Liquid, Flow calorimetry
[2] = molar heat capacity at constant pressure; xn = mol fraction of the nth substance listed; conditions: 313.15 K, Liquid, Flow calorimetry, x2 = 0

CCO [ethanol]
molar heat capacity at constant pressure [J/K/mol], [1]
Conditions | 100 kPa | 5000 kPa | 10000 kPa | 15000 kPa | 20000 kPa
273.15 K | 103.5 | 103.1 | 102.1 | 101.7 | 100.7
293.15 K | 111.2 | 110.2 | 109 | 108.1 | 107.4
313.15 K | 119.2 | 118 | 116.8 | 115.5 | 114.9
333.15 K | 130 | 129.1 | 127.7 | 126 | 124.7

CCO [ethanol] + CCCCCCC
[2]
Conditions | molar heat capacity at constant pressure [J/K/mol]
100 kPa | 119.2
5000 kPa | 118
10000 kPa | 116.8
15000 kPa | 115.5
20000 kPa | 114.9

CCO [ethanol] + Cc1ccccc1
[2]
Conditions | molar heat capacity at constant pressure [J/K/mol]
100 kPa | 119.2
5000 kPa | 118
10000 kPa | 116.8
15000 kPa | 115.5
20000 kPa | 114.9

CCCCCCC [heptane]
molar heat capacity at constant pressure [J/K/mol], [1]
Conditions | 100 kPa | 5000 kPa | 10000 kPa | 15000 kPa | 20000 kPa
273.15 K | 216.2 | 213.1 | 210.9 | 208.1 | 207.2
293.15 K | 224.1 | 223 | 218.2 | 216.8 | 214.4
313.15 K | 233.8 | 230.3 | 226.2 | 223.1 | 221.6
333.15 K | 241.9 | 238.7 | 235 | 232 | 229.3
